{"source": "patent US20050287565A1", "about": "“Methods, compositions and compound assays for inhibiting amyloid-beta protein production” (priority 2004, published 2005)", "type_in_all_cases": "cell-based", "key": {"ADRA1A [1]": {"test_system": "ADRA1A", "experiment": "ADRA1A agonist and antagonist validation in Hek293 APPwt cells, amyloid beta ELISA", "text": "(§1) To identify novel drug targets that change the APP processing, stable cell lines over expressing APP are made by transfecting Hek293 or SH-SY5Y cells with APP770 wt cDNA cloned into pcDNA3.1, followed by selection with G418 for 3 weeks. At this time point colonies are picked and stable clones are expanded and tested for their secreted amyloid-beta peptide levels. The cell lines designated as “Hek293 APPwt” and “SH-SY5Y APPwt” are used in the assays.\nHek293 APPwt Assay: Cells seeded in collagen-coated plates at a cell density of 15000 cells/well (384 well plate) in DMEM (10% FBS), are infected 24 h later with 1 μl or 0.2 μl of adenovirus (corresponding to an average multiplicity of infection (MOI) of 120 and 24 respectively). The following day, the virus is washed away and DMEM (25 mM Hepes; 10% FBS) is added to the cells. Amyloid-beta peptides are allowed to accumulate during 24 h.\n(§2) ELISA: The ELISA plate is prepared by coating with a capture antibody (JRF/cAbeta42/26) (the antibody recognizes a specific epitope on the C-terminus of Abeta 1-42; obtained from M Mercken, Johnson and Johnson Pharmaceutical Research and Development, B-2340 Beerse, Belgium) overnight in buffer 42 (Table 2) at a concentration of 2.5 μg/ml. The excess capture antibody is washed away the next morning with PBS and the ELISA plate is then blocked overnight with casein buffer (see Table 2) at 4° C. Upon removal of the blocking buffer, 30 μl of the sample is transferred to the ELISA plate and incubated overnight at 4° C. After extensive washing with PBS-Tween20 and PBS, 30 μl of the horseradish peroxidase (HRP) labeled detection antibody (Peroxidase Labeling Kit, Roche), JRF/AbetaN/25-HRP (obtained from M Mercken, Johnson and Johnson Pharmaceutical Research and Development, B-2340 Beerse, Belgium) is diluted 1/5000 in buffer C (see Table 2) and added to the wells for another 2 h. Following the removal of excess detection antibody by a wash with PBS-Tween20 and PBS, HRP activity is detected via addition of luminol substrate (Roche), which is converted into a chemiluminescent signal by the HRP enzyme.\nIn addition, for the SH-SY5Y APPwt assay, the samples are also analyzed in an amyloid beta x-42 ELISA. This ELISA detects all amyloid beta peptide species ending at position 42, comprising 1-42, 11-42 and 17-42 (p3), which originate respectively from BACE activity at position 1 and 11, and alpha secretase activity at position 17. Thus, in addition to the amyloidogenic pathway, the non-amyloidogenic pathway is also monitored. The protocol for the Abeta x-42 ELISA is identical to the protocol for the Abeta 1-42 ELISA, except that a HRP labeled 4G8 antibody (Signet; the antibody recognizes a specific epitope in the center of the Abeta peptides) is used as detection antibody. […]"}, "ADRA1A [2]": {"test_system": "ADRA1A", "experiment": "ADRA1A agonist and antagonist validation in SH-SY5Y APPwt cells, amyloid beta ELISA", "experimental": "as §1\nSH-SY5Y APPwt Assay: Cells are seeded in collagen-coated plates at a cell density of 15000 cells/well (384 well plate) in Dulbecco's MEM with Glutamax I+15% FBS HI+non-essential amino acids+Geneticin 500 μg/ml. The cells are differentiated towards the neuronal phenotype by adding 9-cis retinoic acid to a final concentration of 1 μM on day 1, day 3, day 5 and day 8. On day 9, the cells are infected with 1 μl of adenovirus (corresponding to an average multiplicity of infection (MOI) of 120 respectively). The following day, the virus is washed away and DMEM 25 mM Hepes 10% FBS is added to the cells. Amyloid beta peptides are allowed to accumulate for 24 h.\nas §2\nIn addition, for the SH-SY5Y APPwt assay, the samples are also analyzed in an amyloid beta x-42 ELISA. This ELISA detects all amyloid beta peptide species ending at position 42, comprising 1-42, 11-42 and 17-42 (p3), which originate respectively from BACE activity at position 1 and 11, and alpha secretase activity at position 17. Thus, in addition to the amyloidogenic pathway, the non-amyloidogenic pathway is also monitored. […]"}, "TACR1": {"target": "TACR1 (Homo sapiens, UniProt P25103)", "sequence (P25103 whole entry)": "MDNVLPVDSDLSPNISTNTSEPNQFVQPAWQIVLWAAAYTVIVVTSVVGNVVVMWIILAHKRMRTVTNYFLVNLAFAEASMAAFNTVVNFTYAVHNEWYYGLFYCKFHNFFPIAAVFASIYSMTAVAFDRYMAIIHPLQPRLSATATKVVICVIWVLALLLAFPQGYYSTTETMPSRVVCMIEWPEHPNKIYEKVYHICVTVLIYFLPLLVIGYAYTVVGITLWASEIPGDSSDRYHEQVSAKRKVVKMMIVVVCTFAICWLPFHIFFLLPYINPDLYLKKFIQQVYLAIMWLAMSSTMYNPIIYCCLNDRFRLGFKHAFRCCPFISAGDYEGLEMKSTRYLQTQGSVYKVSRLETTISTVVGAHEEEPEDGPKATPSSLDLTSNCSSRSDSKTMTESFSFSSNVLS", "experiment": "TACR1 agonist and antagonist validation in Hek293 APPwt cells, amyloid beta ELISA", "conditions": "Hek293 APPwt cells infected with Ad5/TACR1_v1", "protocol": "ELISA: The ELISA plate is prepared by coating with a capture antibody (JRF/cAbeta42/26) (the antibody recognizes a specific epitope on the C-terminus of Abeta 1-42; obtained from M Mercken, Johnson and Johnson Pharmaceutical Research and Development, B-2340 Beerse, Belgium) overnight in buffer 42 (Table 2) at a concentration of 2.5 μg/ml. The excess capture antibody is washed away the next morning with PBS and the ELISA plate is then blocked overnight with casein buffer (see Table 2) at 4° C. Upon removal of the blocking buffer, 30 μl of the sample is transferred to the ELISA plate and incubated overnight at 4° C. […]\nIn addition, for the SH-SY5Y APPwt assay, the samples are also analyzed in an amyloid beta x-42 ELISA. […] Thus, in addition to the amyloidogenic pathway, the non-amyloidogenic pathway is also monitored. […]"}, "[3]": {"conditions": "Hek293 APPwt cells infected with Ad5/ADRA1A_v1, increasing amounts of agonist, 24 h, concentration dependent"}, "[4]": {"conditions": "SH-SY5Y APPwt cells infected with Ad5/ADRA1A_v1, increasing amounts of agonist, 24 h, concentration dependent"}}}
{"compound": "Br.CS(=O)(=O)Nc1c(O)ccc2c1CCCC2C1=NCCN1", "note": "(stereo not shown) [A61603]", "values": [{"measurement": "amount of amyloid beta 1-42 secreted in the medium", "setting": "ADRA1A [1]; [3]", "value": "decreased"}, {"measurement": "amount of amyloid beta x-42 secreted in the medium", "setting": "ADRA1A [1]; [3]", "value": "increased"}, {"measurement": "amount of amyloid beta 1-42 secreted in the medium", "setting": "ADRA1A [2]; [4]", "value": "increased"}, {"measurement": "amount of amyloid beta x-42 secreted in the medium", "setting": "ADRA1A [2]; [4]", "value": "increased"}]}
{"compound": "Cl.FC(F)(F)c1cc(CO[C@H]2CCCN[C@H]2c2ccccc2)cc(C(F)(F)F)c1", "note": "[L-733,060 hydrochloride]", "values": [{"measurement": "observed Substance P EC50 values with increasing concentration of the antagonist", "setting": "TACR1; amyloid beta x-42 ELISA, 0.1, 1 and 10 μM antagonist", "value": "increased"}, {"measurement": "amount of amyloid beta x-42 secreted in the medium", "setting": "TACR1; substance P plus fixed 0.1, 1 and 10 μM antagonist, 24 h, concentration dependent", "value": "reduces"}]}
{"compound": "CC(C)(Cc1c[nH]c2ccc(Cl)cc12)NCCOc1ccccc1OCC1CC1.Cl", "note": "[RS-17053 hydrochloride]", "values": [{"measurement": "amount of amyloid beta x-42 secreted in the medium", "setting": "ADRA1A [1]; Hek293 APPwt cells infected with Ad5/ADRA1A_v1, A61603 plus fixed 0.1 and 1 μM antagonist, 24 h, concentration dependent", "value": "reduced"}, {"measurement": "observed EC50 values (agonist A61603) with increasing concentration of the antagonist", "setting": "ADRA1A [1]; Hek293 APPwt cells, amyloid beta x-42 ELISA, 0.1 and 1 μM antagonist", "value": "increased"}, {"measurement": "amount of amyloid beta 1-42 secreted in the medium", "setting": "ADRA1A [2]; SH-SY5Y APPwt cells infected with Ad5/ADRA1A_v1, A61603 plus fixed 0.1 and 1 μM antagonist, 24 h, concentration dependent", "value": "reduced"}, {"measurement": "observed EC50 values (agonist A61603) with increasing concentration of the antagonist", "setting": "ADRA1A [2]; SH-SY5Y APPwt cells, amyloid beta 1-42 ELISA, 0.1 and 1 μM antagonist", "value": "increased"}]}
